{"source": "patent US20230102860A1", "about": "“METHOD FOR C[…] FUNGICIDE-RESISTANT SOYBEAN RUST FUNGI” (SUMITOMO CHEMICAL COMPANY, LIMITED, priority 2020, published 2023)", "system": "soybean rust fungus (Phakopsora pachyrhizi) having an amino acid substitution of F129L on mitochondrial cytochrome b protein", "experiment": "Comparative Test Example 1: soybean leaf disk test at 50 ppm or 12.5 ppm, lesion area (Table A, Table B)", "type": "in vivo", "method": "A soybean leaf (cv; Kurosengoku) was punched out to 1 cm diameter to prepare a leaf disk. Each 1 mL of 1.2% agar medium was dispensed in 24 well microplate. A piece of the leaf disk was placed on each well. To a mixture of 0.5 μL of Sorpol (registered trademark) 1200KX, 4.5 μL of DMSO, and 5 μL of xylene was added 20 μL of a DMSO solution containing 10,000 ppm of the test compound. The resulting mixture was diluted with ion exchange water to prepare a spray solution containing a predetermined concentration of the test compound. The spray solution was sprayed in 10 μL per one leaf disk. After 1 day, an aqueous suspension of spores of soybean rust fungus (Phakopsora pachyrhizi) having an amino acid substitution of F129L on mitochondrial cytochrome b protein (1.0×10^5/mL) was inoculated onto the leaf disks. After the inoculation, the microplate was placed in a growth chamber (light on for 6 hours, light off for 18 hours, 23° C. temperature, 60% humidity). After 1 day, the leaf disks were air-dried to disappear water droplets on the surface of the leaf disk, and the microplate was placed again in the growth chamber for 10 to 14 days. Thereafter, a lesion area of soybean rust disease was assessed. […] Here the untreated means that the spray solution containing the test compound was not sprayed onto the leaf disk.\nThe test was conducted by using as a test compound the present compound 3, 5, 11, 59, 200, 202, 207, 214, 222, 294 or 391, or azoxystrobin, dimoxystrobin or metominostrobin, at the predetermined concentration of 50 ppm or 12.5 ppm according to a method described in the Test Example 1. The results thereof are indicated in [Table A] and [Table B]."}
{"smiles": "CCCCC#Cc1cc(Cl)ccc1/C(=C\\OC)C(=O)OC", "values": [{"measurement": "Lesion Area at each concentration (%)", "setting": "12.5 ppm", "value": 0, "unit": "%"}, {"measurement": "Lesion Area at each concentration (%)", "setting": "50 ppm", "value": 0, "unit": "%"}]}
{"smiles": "CNC(=O)/C(=N/OC)c1ccccc1COc1cc(C)ccc1C", "values": [{"measurement": "Lesion Area at each concentration (%)", "setting": "12.5 ppm", "value": 100, "unit": "%"}, {"measurement": "Lesion Area at each concentration (%)", "setting": "50 ppm", "value": 100, "unit": "%"}]}
{"smiles": "CO/C=C(/C(=O)OC)c1ccccc1COc1ccn(-c2ccc(Cl)cc2)n1", "values": [{"measurement": "Lesion Area at each concentration (%)", "setting": "12.5 ppm", "value": 10, "unit": "%"}, {"measurement": "Lesion Area at each concentration (%)", "setting": "50 ppm", "value": 0, "unit": "%"}]}
{"smiles": "CO/C=C(/C(=O)OC)c1ccccc1/C=C/C1CC1C", "note": "(stereo not shown)", "values": [{"measurement": "Lesion Area at each concentration (%)", "setting": "12.5 ppm", "value": 0, "unit": "%"}, {"measurement": "Lesion Area at each concentration (%)", "setting": "50 ppm", "value": 0, "unit": "%"}]}
{"smiles": "CO/C=C(/C(=O)OC)c1ccc(Cl)cc1/C=C/C1CC1(C)C", "note": "(stereo not shown)", "values": [{"measurement": "Lesion Area at each concentration (%)", "setting": "12.5 ppm", "value": 0, "unit": "%"}, {"measurement": "Lesion Area at each concentration (%)", "setting": "50 ppm", "value": 0, "unit": "%"}]}
{"smiles": "CNC(=O)/C(=N/OC)c1ccccc1COc1ccn(-c2ccc(Cl)cc2)n1", "values": [{"measurement": "Lesion Area at each concentration (%)", "setting": "12.5 ppm", "value": 10, "unit": "%"}, {"measurement": "Lesion Area at each concentration (%)", "setting": "50 ppm", "value": 0, "unit": "%"}]}
{"smiles": "CO/C=C(/C(=O)OC)c1ccc(Cl)cc1C#CCC(C)C", "values": [{"measurement": "Lesion Area at each concentration (%)", "setting": "12.5 ppm", "value": 0, "unit": "%"}, {"measurement": "Lesion Area at each concentration (%)", "setting": "50 ppm", "value": 0, "unit": "%"}]}
{"smiles": "CO/C=C(/C(=O)OC)c1ccccc1Oc1cc(Oc2ccccc2C#N)ncn1", "values": [{"measurement": "Lesion Area at each concentration (%)", "setting": "12.5 ppm", "value": 100, "unit": "%"}, {"measurement": "Lesion Area at each concentration (%)", "setting": "50 ppm", "value": 100, "unit": "%"}]}
{"smiles": "CNC(=O)/C(=N/OC)c1ccccc1Oc1ccccc1", "values": [{"measurement": "Lesion Area at each concentration (%)", "setting": "12.5 ppm", "value": 100, "unit": "%"}, {"measurement": "Lesion Area at each concentration (%)", "setting": "50 ppm", "value": 100, "unit": "%"}]}
{"smiles": "CO/C=C(/C(=O)OC)c1ccc(Cl)cc1C#CCC1CCCC1", "values": [{"measurement": "Lesion Area at each concentration (%)", "setting": "12.5 ppm", "value": 0, "unit": "%"}, {"measurement": "Lesion Area at each concentration (%)", "setting": "50 ppm", "value": 0, "unit": "%"}]}
{"smiles": "CCc1ccc(/C(=C\\OC)C(=O)OC)c(/C=C/C2CC2)c1", "values": [{"measurement": "Lesion Area at each concentration (%)", "setting": "12.5 ppm", "value": 0, "unit": "%"}, {"measurement": "Lesion Area at each concentration (%)", "setting": "50 ppm", "value": 0, "unit": "%"}]}
{"smiles": "CO/C=C(/C(=O)OC)c1ccccc1/C=C/C1CC1(F)F", "note": "(stereo not shown)", "values": [{"measurement": "Lesion Area at each concentration (%)", "setting": "12.5 ppm", "value": 0, "unit": "%"}, {"measurement": "Lesion Area at each concentration (%)", "setting": "50 ppm", "value": 0, "unit": "%"}]}
{"smiles": "CO/C=C(/C(=O)OC)c1ccc(OC)cc1C#CCC(C)C", "values": [{"measurement": "Lesion Area at each concentration (%)", "setting": "12.5 ppm", "value": 0, "unit": "%"}, {"measurement": "Lesion Area at each concentration (%)", "setting": "50 ppm", "value": 0, "unit": "%"}]}
{"smiles": "CO/C=C(/C(=O)OC)c1c(C)cccc1CO/N=C(\\C)c1ccc(Cl)cc1", "values": [{"measurement": "Lesion Area at each concentration (%)", "setting": "12.5 ppm", "value": 0, "unit": "%"}, {"measurement": "Lesion Area at each concentration (%)", "setting": "50 ppm", "value": 0, "unit": "%"}]}
